The values that follow come from patent publication US8440830B2, “Tetrahydro-fused pyridines as histone deacetylase inhibitors” (4SC AG, priority 2007, dated 2013).

SMILES strings stand for the structures. Structures can show the parent of a compound that is named as a salt.

This assay relates to A549 NSCLC cells. In words: Cellular cytotoxicity assay (Alamar Blue), A549. Format: cell-based. To be noted: Homo sapiens, 72 h, upper end given as ≧100, read-out: IC50 (μM), cytotoxicity towards A549 NSCLC cells. Summed up:
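Resazurin-to-resorufin fluorescence (ex 544, em 590 nm, after 4 h) gave viability as % of untreated cells following 72 h compound exposure at 37 °C. Compounds were added in semi-logarithmic dilutions 24 h post-seeding, quadruplicate wells; IC50 fitted by non-linear regression of concentration-effect curves.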
Background: The colour change of resazurin is a common sign of viable cells or microbes.

Regarding `COc1ccc(OCC(=O)N2CCc3nc(C(=O)Nc4cc(C(C)C)ccc4N)sc3C2)cc1` [Example 178, N-(2-amino-5-isopropylphenyl)-5-[(4-methoxyphenoxy)acetyl]-4,5,6,7-tetrahydro[1,3]thiazolo[5,4-c]pyridine-2-carboxamide], the IC50 is at least 0.2 µM.
As for `Nc1ccccc1NC(=O)c1nc2c(s1)CN(S(=O)(=O)c1ccc3ccccc3c1)CC2` [Example 156, N-(2-aminophenyl)-5-(2-naphthylsulfonyl)-4,5,6,7-tetrahydro[1,3]thiazolo[5,4-c]pyridine-2-carboxamide], the figure is at least 0.2 µM; as for `COc1ccc(NC(=S)N2CCc3nc(C(=O)Nc4cc(C(C)C)ccc4N)sc3C2)cc1` [Example 110, N-(2-amino-5-isopropylphenyl)-5-{[(4-methoxyphenyl)amino]carbonothioyl}-4,5,6,7-tetrahydro[1,3]thiazolo[5,4-c]pyridine-2-carboxamide], at least 0.2 µM.
Take `COc1ccc(N=C(C)N2CCc3nc(C(=O)Nc4cc(C(C)C)ccc4N)sc3C2)cc1` [Example 132, N-(2-amino-5-isopropylphenyl)-5-[N-(4-methoxyphenyl)ethanimidoyl]-4,5,6,7-tetrahydro[1,3]thiazolo[5,4-c]pyridine-2-carboxamide]: the IC50 is at least 0.2 µM.
Turning to `CN(C)c1cccc(C(=O)N2CCc3nc(C(=O)Nc4ccccc4N)sc3C2)c1` [Example 97, N-(2-aminophenyl)-5-[3-(dimethylamino)benzoyl]-4,5,6,7-tetrahydro[1,3]thiazolo[5,4-c]pyridine-2-carboxamide], the IC50 is at least 0.2 µM.
Then `CC(=O)Nc1nc(C)c(S(=O)(=O)N2CCc3nc(C(=O)Nc4ccccc4N)sc3C2)s1` [Example 159, 5-[(2-acetamido-4-methyl-1,3-thiazol-5-yl)sulfonyl]-N-(2-aminophenyl)-4,5,6,7-tetrahydro[1,3]thiazolo[5,4-c]pyridine-2-carboxamide], with at least 0.2 µM.
Regarding `COc1ccc(NC(=C[N+](=O)[O-])N2CCc3nc(C(=O)Nc4ccccc4N)sc3C2)cc1OC` [Example 141, N-(2-aminophenyl)-5-{1-[(3,4-dimethoxyphenyl)amino]-2-nitrovinyl}-4,5,6,7-tetrahydro[1,3]thiazolo[5,4-c]pyridine-2-carboxamide], the IC50 was at least 0.2 µM.
Turning to `Nc1ccccc1NC(=O)c1nc2c(s1)CN(c1ccc(NC(=O)NCc3ccccc3)cc1)CC2` [Example 198, N-(2-aminophenyl)-5-{4-[(benzylcarbamoyl)amino]phenyl}-4,5,6,7-tetrahydro[1,3]thiazolo[5,4-c]pyridine-2-carboxamide], the IC50 is at least 0.2 µM.
Then `CC(=Nc1ccccc1)N1CCc2nc(C(=O)Nc3cc(C(C)C)ccc3N)sc2C1` [Example 135, N-(2-amino-5-isopropylphenyl)-5-[N-phenylethanimidoyl]-4,5,6,7-tetrahydro[1,3]thiazolo[5,4-c]pyridine-2-carboxamide], with at least 0.2 µM.
Then `Nc1ccccc1NC(=O)c1nc2c(s1)CN(C(=O)Nc1cccc3cnccc13)CC2` [Example 62, N^2-(2-aminophenyl)-N^5-isoquinolin-5-yl-6,7-dihydro[1,3]thiazolo[5,4-c]pyridine-2,5(4H)-dicarboxamide], with at least 0.2 µM; and `CN(C)c1ccc(NC(=O)C(=O)N2CCc3nc(C(=O)Nc4ccccc4N)sc3C2)cn1` [Example 71, N-(2-aminophenyl)-5-[{[6-(dimethylamino)pyridin-3-yl]amino}(oxo)acetyl]-4,5,6,7-tetrahydro[1,3]thiazolo[5,4-c]pyridine-2-carboxamide], with at least 0.2 µM.
In the case of `Nc1ccccc1NC(=O)c1nc2c(s1)CN(C(=O)Nc1ccc(OC(F)(F)F)cc1)CC2` [Example 9, N^2-(2-aminophenyl)-N5-[4-(trifluoromethoxy)phenyl]-6,7-dihydro[1,3]thiazolo[5,4-c]pyridine-2,5(4H)-dicarboxamide], the half-inhibitory concentration (IC50) was at least 0.2 µM.
As to `COc1ccc(N)c(NC(=O)c2nc3c(s2)CN(C(=S)Nc2ccccc2)CC3)c1` [Example 102, N-(2-amino-5-methoxyphenyl)-5-(anilinocarbonothioyl)-4,5,6,7-tetrahydro[1,3]thiazolo[5,4-c]pyridine-2-carboxamide], the IC50 was at least 0.2 µM.
As to `COc1ccc(NC(=C[N+](=O)[O-])N2CCc3nc(C(=O)Nc4cc(C(C)C)ccc4N)sc3C2)cc1` [Example 146, N-[2-amino-5-(1-methylethyl)phenyl]-5-{1-[(4-methoxyphenyl)amino]-2-nitroethenyl}-4,5,6,7-tetrahydro[1,3]thiazolo[5,4-c]pyridine-2-carboxamide], the IC50 was at least 0.2 µM.
Then `Cc1ccc(C(=O)N2CCc3nc(C(=O)Nc4ccccc4N)sc3C2)cc1` [Example 89, N-(2-aminophenyl)-5-(4-methylbenzoyl)-4,5,6,7-tetrahydro[1,3]thiazolo[5,4-c]pyridine-2-carboxamide], with at least 0.2 µM.
As for `Nc1ccccc1NC(=O)c1nc2c(s1)CN(S(=O)(=O)Cc1ccccc1)CC2` [Example 151, N-(2-aminophenyl)-5-(benzylsulfonyl)-4,5,6,7-tetrahydro[1,3]thiazolo[5,4-c]pyridine-2-carboxamide], the figure is at least 0.2 µM; as for `COc1ccc(N)c(NC(=O)c2nc3c(s2)CN(C(=O)C(=O)Nc2ccc(OC)c(OC)c2)CC3)c1` [Example 82, N-(2-amino-5-methoxyphenyl)-5-{[(3,4-dimethoxyphenyl)amino](oxo)acetyl}-4,5,6,7-tetrahydro[1,3]thiazolo[5,4-c]pyridine-2-carboxamide], at least 0.2 µM; as for `CC(C)c1ccc(N)c(NC(=O)c2nc3c(s2)CN(C(=S)Nc2cccnc2)CC3)c1` [Example 108, N-(2-amino-5-isopropylphenyl)-5-[(pyridin-3-ylamino)carbonothioyl]-4,5,6,7-tetrahydro[1,3]thiazolo[5,4-c]pyridine-2-carboxamide], at least 0.2 µM.
Take `COc1ccc(N=C(NC#N)N2CCc3nc(C(=O)Nc4cc(OC)ccc4N)sc3C2)cc1` [Example 124, N-(2-amino-5-methoxyphenyl)-5-{(cyanoamino)[(4-methoxyphenyl)imino]-methyl}-4,5,6,7-tetrahydro[1,3]thiazolo[5,4-c]pyridine-2-carboxamide]: the IC50 was at least 0.2 µM.
Then `CNC(=O)N1CCc2nc(C(=O)Nc3ccccc3N)sc2C1` [Example 17, N^2-(2-aminophenyl)-N^5-methyl-6,7-dihydro[1,3]thiazolo[5,4-c]pyridine-2,5(4H)-dicarboxamide], with at least 0.2 µM.
Then `Nc1ccccc1NC(=O)c1nc2c(s1)CN(C(=O)c1ccc(-c3ccccc3)cc1)CC2` [Example 88, N-(2-aminophenyl)-5-(biphenyl-4-ylcarbonyl)-4,5,6,7-tetrahydro[1,3]thiazolo[5,4-c]pyridine-2-carboxamide], with at least 0.2 µM; and `Nc1ccccc1NC(=O)c1nc2c(s1)CN(C(=O)OCc1ccccc1)CC2` [Example 188, Benzyl 2-[(2-aminophenyl)carbamoyl]-6,7-dihydro[1,3]thiazolo[5,4-c]pyridine-5(4H)-carboxylate], with at least 0.2 µM.
Regarding `Nc1ccccc1NC(=O)c1nc2c(s1)CN(S(=O)(=O)c1cccs1)CC2` [Example 157, N-(2-aminophenyl)-5-(2-thienylsulfonyl)-4,5,6,7-tetrahydro[1,3]thiazolo[5,4-c]pyridine-2-carboxamide], the IC50 was at least 0.2 µM.
As for `Nc1ccccc1NC(=O)c1nc2c(s1)CN(C(=S)NC1CCNCC1)CC2` [Example 100, N-(2-aminophenyl)-5-[(piperidin-4-ylamino)carbonothioyl]-4,5,6,7-tetrahydro[1,3]thiazolo[5,4-c]pyridine-2-carboxamide], the figure is at least 0.2 µM; as for `CN=C(Nc1ccccc1)N1CCc2nc(C(=O)Nc3ccccc3N)sc2C1` [Example 114, N-(2-aminophenyl)-5-[anilino(methylimino)methyl]-4,5,6,7-tetrahydro[1,3]thiazolo[5,4-c]pyridine-2-carboxamide. (Dihydrochloride)], at least 0.2 µM; as for `COc1ccc(N)c(NC(=O)c2nc3c(s2)CN(S(=O)(=O)c2ccc(C)cc2)CC3)c1` [Example 169, N-(2-amino-5-methoxyphenyl)-5-[(4-methylphenyl)sulfonyl]-4,5,6,7-tetrahydro[1,3]thiazolo[5,4-c]pyridine-2-carboxamide], at least 0.2 µM.
As for `Cc1ccc(S(=O)(=O)Nc2ccc(N3CCc4nc(C(=O)Nc5ccccc5N)sc4C3)cc2)cc1` [Example 199, N-(2-aminophenyl)-5-(4-{[(4-methylphenyl)sulfonyl]amino}phenyl)-4,5,6,7-tetrahydro[1,3]thiazolo[5,4-c]pyridine-2-carboxamide], the figure is at least 0.2 µM; as for `CCCCNC(=O)C(=O)N1CCc2nc(C(=O)Nc3ccccc3N)sc2C1` [Example 79, N-(2-aminophenyl)-5-[(butylamino)(oxo)acetyl]-4,5,6,7-tetrahydro[1,3]thiazolo[5,4-c]pyridine-2-carboxamide], at least 0.2 µM.
As for `COc1ccc(NC(=N)N2CCc3nc(C(=O)Nc4ccccc4N)sc3C2)cc1` [Example 111, N-(2-aminophenyl)-5-{imino[(4-methoxyphenyl)amino]methyl}-4,5,6,7-tetrahydro[1,3]thiazolo[5,4-c]pyridine-2-carboxamide], the figure is at least 0.2 µM; as for `COc1ccc(NC(=O)N2CCc3nc(C(=O)Nc4cc(C(C)C)ccc4N)sc3C2)cc1OC` [Example 48, N^2-(2-amino-5-isopropylphenyl)-N^5-(3,4-dimethoxyphenyl)-6,7-dihydro[1,3]thiazolo[5,4-c]pyridine-2,5(4H)-dicarboxamide], at least 0.2 µM.
In the case of `COc1ccc(C(=O)N2CCc3nc(C(=O)Nc4ccccc4N)sc3C2)cc1` [Example 93, N-(2-aminophenyl)-5-(4-methoxybenzoyl)-4,5,6,7-tetrahydro[1,3]thiazolo[5,4-c]pyridine-2-carboxamide], the IC50 is at least 0.2 µM.
For the compound `Nc1ccccc1NC(=O)c1nc2c(s1)CN(C(=S)Nc1ccccc1)CC2` [Example 98, N-(2-aminophenyl)-5-(anilinocarbonothioyl)-4,5,6,7-tetrahydro[1,3]thiazolo[5,4-c]pyridine-2-carboxamide], the IC50 is at least 0.2 µM.

Broadly, the IC50 is the concentration that inhibits the measured activity by half.
